Counter-ions that a name gives are not always drawn. Like-named read-outs stand apart in the source and are kept apart here.
What was measured:
[1] = target: T1, α1A Human Adrenergic Receptor (Homo sapiens, UniProt P25100); assay: Radioligand binding, [3H]prazosin, cloned human α1A adrenergic receptor
T1 construct: The entire coding region of α1A (1719 bp); expressed in transfected cells
T1 sequence (P25100 1-572): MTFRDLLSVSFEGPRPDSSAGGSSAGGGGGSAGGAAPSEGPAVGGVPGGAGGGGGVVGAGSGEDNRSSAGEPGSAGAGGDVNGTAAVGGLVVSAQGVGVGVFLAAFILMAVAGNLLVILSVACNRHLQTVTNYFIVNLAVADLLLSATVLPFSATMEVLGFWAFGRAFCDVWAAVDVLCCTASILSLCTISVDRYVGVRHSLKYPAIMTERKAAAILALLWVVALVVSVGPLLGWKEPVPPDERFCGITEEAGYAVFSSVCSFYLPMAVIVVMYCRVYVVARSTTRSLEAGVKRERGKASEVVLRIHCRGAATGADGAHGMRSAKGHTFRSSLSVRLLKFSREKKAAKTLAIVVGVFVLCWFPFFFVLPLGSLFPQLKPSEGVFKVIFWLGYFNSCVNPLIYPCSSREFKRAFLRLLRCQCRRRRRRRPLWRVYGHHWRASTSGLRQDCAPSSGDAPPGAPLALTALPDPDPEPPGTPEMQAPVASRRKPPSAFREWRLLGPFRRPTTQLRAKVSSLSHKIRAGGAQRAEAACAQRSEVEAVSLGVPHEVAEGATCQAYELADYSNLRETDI
Procedure, shortened: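 Competition binding used membrane preparations of transfected LM(tk−) cells and the α1 antagonist [3H]prazosin at 0.5 nM, incubated 20 min at 37° C in Tris-HCl buffer, pH 7.5.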

α2C receptor = target: T2, α2C receptor (Homo sapiens, UniProt P18825); assay: Competition binding, [3H]rauwolscine, human α2C receptor
T2 construct: host or cells: LM(tk-) cells, line L-α2C
T2 sequence (P18825 1-462): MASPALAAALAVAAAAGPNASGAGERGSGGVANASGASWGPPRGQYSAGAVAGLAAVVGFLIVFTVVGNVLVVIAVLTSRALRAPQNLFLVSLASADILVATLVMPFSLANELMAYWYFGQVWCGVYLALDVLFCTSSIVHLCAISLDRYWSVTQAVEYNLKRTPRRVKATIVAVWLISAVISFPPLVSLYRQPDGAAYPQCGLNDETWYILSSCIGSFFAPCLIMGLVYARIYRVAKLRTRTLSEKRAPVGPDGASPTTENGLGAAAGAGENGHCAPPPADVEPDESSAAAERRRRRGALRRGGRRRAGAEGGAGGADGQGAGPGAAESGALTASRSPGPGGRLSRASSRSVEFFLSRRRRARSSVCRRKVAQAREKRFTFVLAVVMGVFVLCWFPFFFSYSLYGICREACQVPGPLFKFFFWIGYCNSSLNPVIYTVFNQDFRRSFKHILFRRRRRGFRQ
Procedure, shortened: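 Lysates of LM(tk−) cells stably expressing human α2A, α2B or α2C receptors in 25 mM glycylglycine pH 7.6. Equilibrium competition against 0.5 nM [3H]rauwolscine, with 10 μM phentolamine defining nonspecific binding. Bound ligand separated by GF/B filtration.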

L-type calcium channel = target: T3, L-type calcium channel (Rattus norvegicus, UniProt P22002); assay: Competition binding of [3H]nitrendipine to membrane fragments of rat cardiac muscle
T3 construct: membrane fragments of rat cardiac muscle; from tissue; host or cells: rat cardiac muscle membranes
T3 sequence (P22002 whole entry, other chains not shown, the tested form may be a part): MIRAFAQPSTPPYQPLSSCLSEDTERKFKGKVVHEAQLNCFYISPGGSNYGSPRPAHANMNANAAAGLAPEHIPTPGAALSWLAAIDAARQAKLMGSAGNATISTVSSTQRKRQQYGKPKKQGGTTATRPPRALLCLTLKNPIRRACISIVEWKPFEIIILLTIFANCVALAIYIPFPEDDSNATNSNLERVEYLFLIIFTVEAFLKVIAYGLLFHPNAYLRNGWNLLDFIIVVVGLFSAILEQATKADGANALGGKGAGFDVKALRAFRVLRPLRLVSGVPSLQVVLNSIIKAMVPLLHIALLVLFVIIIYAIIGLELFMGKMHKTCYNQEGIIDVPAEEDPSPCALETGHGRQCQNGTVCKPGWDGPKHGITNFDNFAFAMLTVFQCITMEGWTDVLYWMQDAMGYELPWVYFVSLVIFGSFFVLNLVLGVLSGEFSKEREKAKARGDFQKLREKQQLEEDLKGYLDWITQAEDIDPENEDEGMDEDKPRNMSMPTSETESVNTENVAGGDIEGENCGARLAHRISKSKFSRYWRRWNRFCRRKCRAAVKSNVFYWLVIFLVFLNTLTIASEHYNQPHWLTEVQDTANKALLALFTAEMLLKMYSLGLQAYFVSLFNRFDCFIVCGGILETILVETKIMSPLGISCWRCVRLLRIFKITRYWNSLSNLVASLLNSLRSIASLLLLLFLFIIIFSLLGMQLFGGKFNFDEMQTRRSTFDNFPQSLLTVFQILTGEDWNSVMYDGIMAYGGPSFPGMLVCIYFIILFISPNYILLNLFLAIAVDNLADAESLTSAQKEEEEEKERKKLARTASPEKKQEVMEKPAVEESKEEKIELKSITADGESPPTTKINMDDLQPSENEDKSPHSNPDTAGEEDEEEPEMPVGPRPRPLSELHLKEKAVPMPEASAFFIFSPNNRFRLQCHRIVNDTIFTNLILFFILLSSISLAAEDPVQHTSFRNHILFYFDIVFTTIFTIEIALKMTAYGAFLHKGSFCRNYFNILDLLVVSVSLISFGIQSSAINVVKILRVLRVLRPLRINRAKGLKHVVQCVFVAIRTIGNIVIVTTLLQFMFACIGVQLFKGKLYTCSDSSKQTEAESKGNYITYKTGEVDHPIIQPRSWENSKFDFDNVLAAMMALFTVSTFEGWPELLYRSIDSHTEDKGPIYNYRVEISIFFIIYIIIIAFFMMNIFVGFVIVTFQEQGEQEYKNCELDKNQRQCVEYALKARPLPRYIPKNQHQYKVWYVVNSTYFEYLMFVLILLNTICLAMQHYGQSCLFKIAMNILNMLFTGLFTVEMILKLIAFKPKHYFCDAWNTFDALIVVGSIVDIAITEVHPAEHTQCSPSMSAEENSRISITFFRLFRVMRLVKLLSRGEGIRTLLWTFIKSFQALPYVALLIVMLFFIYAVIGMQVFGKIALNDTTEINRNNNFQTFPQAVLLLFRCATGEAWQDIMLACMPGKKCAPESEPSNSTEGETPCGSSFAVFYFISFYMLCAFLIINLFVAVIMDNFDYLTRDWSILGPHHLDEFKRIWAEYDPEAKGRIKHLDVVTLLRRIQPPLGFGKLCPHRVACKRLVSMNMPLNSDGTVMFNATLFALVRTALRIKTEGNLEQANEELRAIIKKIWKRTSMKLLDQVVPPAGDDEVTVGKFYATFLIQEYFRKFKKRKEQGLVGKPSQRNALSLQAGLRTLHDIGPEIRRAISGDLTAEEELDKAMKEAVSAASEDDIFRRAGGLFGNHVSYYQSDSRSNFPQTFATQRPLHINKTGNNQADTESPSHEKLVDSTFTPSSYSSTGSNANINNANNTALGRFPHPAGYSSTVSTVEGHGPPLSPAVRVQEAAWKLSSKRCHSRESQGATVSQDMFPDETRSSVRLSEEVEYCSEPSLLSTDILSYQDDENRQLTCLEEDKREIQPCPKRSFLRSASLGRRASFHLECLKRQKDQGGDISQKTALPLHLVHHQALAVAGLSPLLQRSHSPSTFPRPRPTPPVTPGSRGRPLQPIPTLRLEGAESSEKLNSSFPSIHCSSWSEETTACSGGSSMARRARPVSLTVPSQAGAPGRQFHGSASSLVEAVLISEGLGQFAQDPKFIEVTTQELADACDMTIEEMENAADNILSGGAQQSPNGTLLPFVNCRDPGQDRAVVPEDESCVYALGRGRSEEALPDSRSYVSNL
T3 sequence (P54290 25-944 partner limits assumed, other chains not shown): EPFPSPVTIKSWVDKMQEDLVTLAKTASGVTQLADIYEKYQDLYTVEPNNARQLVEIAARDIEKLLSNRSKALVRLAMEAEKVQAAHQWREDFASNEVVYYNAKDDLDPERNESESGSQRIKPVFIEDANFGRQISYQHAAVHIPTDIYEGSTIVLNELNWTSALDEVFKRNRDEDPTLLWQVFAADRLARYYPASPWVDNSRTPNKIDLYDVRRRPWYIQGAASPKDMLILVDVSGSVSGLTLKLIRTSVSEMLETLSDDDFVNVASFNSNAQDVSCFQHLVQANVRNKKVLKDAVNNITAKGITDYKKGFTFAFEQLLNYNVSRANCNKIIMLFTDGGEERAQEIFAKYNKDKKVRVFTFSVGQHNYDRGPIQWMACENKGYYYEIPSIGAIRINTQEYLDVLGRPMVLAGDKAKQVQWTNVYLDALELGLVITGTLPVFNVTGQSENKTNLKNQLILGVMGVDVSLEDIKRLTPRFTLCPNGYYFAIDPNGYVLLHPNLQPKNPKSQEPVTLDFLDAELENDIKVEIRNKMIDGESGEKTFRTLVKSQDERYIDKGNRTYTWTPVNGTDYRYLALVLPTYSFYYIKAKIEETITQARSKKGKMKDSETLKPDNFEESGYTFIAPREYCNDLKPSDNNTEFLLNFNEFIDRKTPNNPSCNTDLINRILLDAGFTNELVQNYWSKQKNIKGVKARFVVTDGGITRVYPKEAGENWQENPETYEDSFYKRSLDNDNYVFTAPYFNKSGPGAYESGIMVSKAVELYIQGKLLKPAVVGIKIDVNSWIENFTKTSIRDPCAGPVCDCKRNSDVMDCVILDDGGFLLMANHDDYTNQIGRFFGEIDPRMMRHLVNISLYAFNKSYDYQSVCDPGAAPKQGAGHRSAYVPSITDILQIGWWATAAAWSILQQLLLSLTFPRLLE
T3 sequence (P54290 945-1091 partner limits assumed, other chains not shown): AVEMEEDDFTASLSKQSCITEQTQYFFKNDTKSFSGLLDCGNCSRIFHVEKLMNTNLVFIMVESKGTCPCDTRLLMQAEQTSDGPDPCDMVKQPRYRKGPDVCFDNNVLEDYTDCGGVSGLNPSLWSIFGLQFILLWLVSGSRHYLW

[2] = pKi alpha-1 1a, [3H]prazosin, cloned human receptor in LM(tk-) cell membranes, SEM and n in lines below
[3] = [3H]rauwolscine, LM(tk-) cell line L-α2C, SEM and n in lines below, read-out: pKi alpha-2 2c (converted)
[4] = [3H]nitrendipine, rat cardiac muscle membranes, SEM and n in lines below, read-out: pKi Ca (converted)
[5] = pKi alpha-1 1a, [3H]prazosin, cloned human α1A receptor, LM(tk−) cell membranes
[6] = [3H]rauwolscine, human α2C receptor, LM(tk−) cells, read-out: pKi alpha-2 2c (converted)
[7] = [3H]nitrendipine, rat cardiac muscle membrane fragments, L-type calcium channel, read-out: pKi Ca (converted)

## CCC1=C(C(=O)NCCCN2CCC(c3ccccc3)(c3ccccc3)CC2)C(c2ccc([N+](=O)[O-])cc2)C(C(N)=O)=C(C)N1 (stereo not drawn) [Example 81, 5-carboxamido-2-ethyl-1,4-dihydro-6-methyl-4-(4-nitro)phenyl-3-(N-(3-(4,4-diphenylpiperidin-1-yl)propyl))carboxamidopyridine hydrochloride]
[1]; [2]
  Ki: 0.407 µM
α2C receptor; [3]
  Ki: 0.123 µM
L-type calcium channel; [4]
  Ki: 32.4 µM

## CC1=C(C(N)=O)C(c2ccc(S(C)(=O)=O)cc2)C(C(=O)NCCCN2CCC(c3ccccc3)(c3ccccc3)CC2)=C(C)N1 (stereo not drawn) [Example 115, 5-Carboxamido-1,4-4-dihydro-4-(4-methanesufonylphenyl)-2,6-dimethyl-3-(N-(3-(4,4-diphenylpiperidin-1-yl)propyl)carboxamido)-pyridine]
[1]; [5]
  Ki: 2 µM
α2C receptor; [6]
  Ki: 2.29 µM
L-type calcium channel; [7]
  Ki: 1000 µM

## COc1cccc(C2C(C(N)=O)=C(C)NC(C)=C2C(=O)NCCCN2CCC(c3ccccc3)(c3ccccc3)CC2)c1 (stereo not drawn) [Example 117, 5-Carboxamido-1,4-dihydro-4-(3-Methoxyphenyl)-2,6-dimethyl-3-(N-(3-(4,4-diphenylpiperidin-1-yl)propyl)carboxamido)-pyridine]
[1]; [5]
  Ki: 2.09 µM
α2C receptor; [6]
  Ki: 0.759 µM
L-type calcium channel; [7]
  Ki: 1000 µM

## CCC1=C(C(N)=O)C(c2ccc([N+](=O)[O-])cc2)C(C(=O)NCCCN2CCN(c3ccccc3OC)CC2)=C(CC)N1 (stereo not drawn) [Example 125, 5-Carboxamido-2,6-diethyl-1,4-dihydro-3-(N-{3-[4-(2-methoxyphenyl)piperazin-1-yl]propyl})carboxamido-4-(4-nitrophenyl)pyridine]
[1]; [3H]prazosin, cloned human α1A receptor, LM(tk−) cell membranes, read-out: pKi alpha-1 1a (converted)
  Ki: 0.0776 µM
α2C receptor; [6]
  Ki: 0.0229 µM
L-type calcium channel; [7]
  Ki: 38 µM

## COC(=O)C1=C(C)NC(C)=C(C(=O)NCCCN2CCC(c3ccccc3)(c3ccccc3)CC2)C1c1ccncc1 (stereo not drawn) [Example 5, 1,4-Dihydro-5-methoxycarbonyl-2,6-dimethyl-3-(N-(3-(4,4-diphenylpiperidin-1-yl)propyl)carboxamido)-4-(4-pyridyl)pyridine]
[1]; pKi alpha-1 1a
  Ki: 1.82 µM
α2C receptor; pKi alpha-2 2c
  Ki: 24.5 µM
L-type calcium channel; pKi Ca
  Ki: 4.57 µM

## CCC1=C(C(=O)NCCCN2CCC(c3ccccc3)(c3ccccc3)CC2)C(c2ccc([N+](=O)[O-])cc2)C(C(=O)OCc2ccccc2)=C(C)N1 (stereo not drawn) [Example 4, 5-Benzyloxycarbonyl-2-ethyl-1,4-dihydro-6-methyl-4-(4-nitrophenyl)-3-(N-(3-(4,4-diphenylpiperidin-1-yl)propyl)carboxamido) pyridine, Hydrochloride Salt, Hydrate]
[1]; [2]
  Ki: 0.195 µM
α2C receptor; [3]
  Ki: 0.501 µM
L-type calcium channel; [4]
  Ki: 0.977 µM

## COC(=O)C1=C(C)NC(c2ccccc2)=C(C(=O)NCCCN2CCC(c3ccccc3)(c3ccccc3)CC2)C1c1ccc([N+](=O)[O-])cc1 (stereo not drawn) [Example 78, 1,4-Dihydro-5-methoxycarbonyl-6-methyl-4-(4-nitro)phenyl-2-phenyl-3-(N-(3-(4,4-diphenylpiperidin-1-yl)propyl))carboxamidopyridine hydrochloride hydrate]
[1]; pKi alpha-1 1a
  Ki: 0.178 µM
α2C receptor; pKi alpha-2 2c
  Ki: 0.151 µM
L-type calcium channel; pKi Ca
  Ki: 3.16 µM

## COC(=O)C1=C(C)NC(C)=C(C(=O)NCCCN2CCC(c3ccccc3)(c3ccccc3)CC2)C1c1ccc([N+](=O)[O-])c(C)c1 (stereo not drawn) [Example 28]
[1]; [2]
  Ki: 0.437 µM
α2C receptor; [3]
  Ki: 0.631 µM
L-type calcium channel; [4]
  Ki: 17.4 µM

## COC(=O)C1=C(C)NC(C)=C(C(=O)NCCCN2CCC(c3ccccc3)(c3ccccc3)CC2)C1c1ccc(OC)c(OC)c1 (stereo not drawn) [Example 26]
[1]; pKi alpha-1 1a
  Ki: 0.525 µM
α2C receptor; pKi alpha-2 2c
  Ki: 1.48 µM
L-type calcium channel; pKi Ca
  Ki: 0.0871 µM

## COC(=O)C1=C(C)NC(C)=C(C(=O)NCCCN2CCC(c3ccccc3)(c3ccccc3)CC2)C1c1ccc(OC)cc1 (stereo not drawn) [Example 21, 1,4-Dihydro-3-methoxycarbonyl-4-(4-Methoxyphenyl)-2,6-dimethyl-5-(N-(3-(4,4-diphenylpiperidin-1-yl)propyl)carboxamido)pyridine]
[1]; pKi alpha-1 1a
  Ki: 0.49 µM
α2C receptor; pKi alpha-2 2c
  Ki: 0.776 µM
L-type calcium channel; pKi Ca
  Ki: 1 µM

## COC(=O)C1=C(C)NC(C)=C(C(=O)N(C)CCCN2CCC(c3ccccc3)(c3ccccc3)CC2)C1c1ccc([N+](=O)[O-])cc1 (stereo not drawn) [Example 46, hydrochloride hemihydrate]
[1]; pKi alpha-1 1a
  Ki: 0.501 µM
α2C receptor; pKi alpha-2 2c
  Ki: 0.245 µM
L-type calcium channel; pKi Ca
  Ki: 7.41 µM

Source: patent publication US6608086B2, “Dihydropyridines and new uses thereof” (Synaptic Pharmaceutical Corporation, priority 1993, dated 2003)
